Measured values from US7771736B2, “Glyphosate formulations and their use for the inhibition of 5-enolpyruvylshikimate-3-phosphate synthase” (Monsanto Technology LLC, priority 2002, dated 2010).
Like-named read-outs stand apart in the source and are kept apart here.

Tests used:
maize EPSPS = experiment: enzyme activity of maize EPSPS (HPLC radioassay, S3P and 14C-PEP) with oxalate or citrate in the presence and absence of glyphosate; format: biochemical; conditions: for effect on the inhibition of EPSPS by glyphosate (rate of catalytic activity on S3P and PEP): additive with 0, 0.6 or 6 mcM glyphosate, relative rate normalized to zero glyphosate
Experimental: These examples assessed the enzyme activity of maize EPSPS with increasing concentrations of oxalate (0, 0.06 mcM, 0.3 mcM, 1.5 mcM, 7.5 mcM and 37.5 mcM) in the presence and absence of glyphosate. Three different conditions (0, 0.6 mcM, and 6 mcM glyphosate) were studied. The assay consisted of incubating enzyme (9 mcg/mL final concentration in the assay) with S3P and ^14C-PEP. The conversion of labeled substrate to 5-enol-[^14C]-pyruvylshikimate-3-phosphate was determined by HPLC radioassay.
Initial velocities were calculated by multiplying fractional turnover per unit time by the initial concentration of the labeled substrate. The data are expressed as relative rates of the enzyme, where relative rate is the reaction rate at a given condition normalized to similar reaction with zero glyphosate.

different weed species = experiment: herbicidal efficacy in whole plants / on different weed species; format: in vivo; conditions: for enhancement of glyphosate herbicidal efficacy: additive combined with glyphosate, whole plants / weed species
[1] = Metal Ion Ca2+; cited from earlier work
[2] = Metal Ion Mg2+; cited from earlier work
Toxoplasma gondii = conditions: cited from earlier work
Plasmodium falciparum = Plasmodium falciparum (malaria); cited from earlier work
Cryptosporidium parvum = conditions: cited from earlier work

Compound	effect on the inhibition of EPSPS by glyphosate (rate of catalytic activity on S3P and PEP) (maize EPSPS)	enhancement of glyphosate herbicidal efficacy (different weed species)	Log K (Binding Constant) [1]	Log K (Binding Constant) [2]	effect on the inhibition of EPSPS by glyphosate (rate of catalytic activity on S3P and PEP) (maize EPSPS; listed as oxalate)	inhibitory effect on the enzyme on its own (maize EPSPS; without glyphosate)	herbicidal property by itself (different weed species; additive alone, enzyme studies and whole plant response)	growth inhibition of parasite (Toxoplasma gondii)	growth inhibition of parasite (Plasmodium falciparum)	growth inhibition of parasite (Cryptosporidium parvum)
O=C(O)CC(O)(CC(=O)O)C(=O)O [Citric acid, citric acid]	did not have any effect on EPSPS inhibition by glyphosate	failed to show enhancement of glyphosate efficacy on different weed species	3.45	3.45						
O=C(O)C(=O)O [Oxalic acid, oxalic acid]	enhance the inhibition of EPSPS by glyphosate	enhance the inhibition of EPSPS by glyphosate as well as its herbicidal efficacy in whole plants	2.46	2.76	enhanced the enzyme binding of glyphosate	do not have any inhibitory effect on the enzyme on their own	does not have any herbicidal property			
O=C(O)CNCP(=O)(O)O [glyphosate, N-phosphonomethyl glycine]								growth of these parasites can be inhibited	growth of these parasites can be inhibited	growth of these parasites can be inhibited
